Data reported in PMC7840129, “Structural basis for heme-dependent NCoR binding to the transcriptional repressor REV-ERBβ” (Science Advances, 2021).

What was measured:
[1] = test system: REV-ERBβ LBD cobound to heme; assay: Crystal structures of REV-ERBβ LBD cobound to heme and NCoR ID peptides; format: binding, human; conditions: ID1 PDB 6WMQ, ID2 PDB 6WMS
Method: After overnight incubation at 4°C with peptide, REV-ERBβ LBD cobound to heme and peptide was buffer-exchanged into Hepes gel filtration buffer to remove unbound and concentrated to 15 mg/ml (ID2-bound) or 5 mg/ml (ID1-bound). Buffer-exchanged proteins were screened for conditions that produced crystals using the NR LBD (Molecular Dimensions), Structure (Molecular Dimensions), Index (Hampton Research), and PEG/Ion (Hampton Research) kits and sitting drop method (1-μl reservoir solution added to 1-μl drop of protein solution) at 22°C. REV-ERBβ LBD crystals cobound to heme and NCoR ID2 grew in 0.2 M Mg formate dihydrate and 20% (w/v) PEG 3350 (PEG/Ion), and REV-ERBβ LBD crystals cobound to heme and NCoR ID1 grew in 2.0 M ammonium sulfate, 0.1 M Na Hepes (pH 7.5), and 2% PEG 400 (Structure). Crystals in their respective condition were supplemented with 10% glycerol and flash-cooled in liquid nitrogen. X-ray diffraction data were collected at the Advanced Light Source synchrotron (Lawrence Berkeley National Laboratory) in 180 images with a 1° rotation per image. Data were processed, indexed, and scaled using Mosflm and Scala in CCP4 (Collaborative Computational Project No. 4) ([32], [33]). […]
Structures were aligned, and RMSD values were calculated in PyMOL using the “align” command with cycles set to 0 (no outliers were removed). […]

[2] = test system: heme-bound 15N-labeled REV-ERBβ LBD; assay: NMR structural footprinting, 2D [1H,15N]-TROSY-HSQC titration, heme-bound LBD; format: binding, human; conditions: 298 K; for NMR exchange regime on peptide titration: heme-bound LBD (200 μM, 1.25 equivalents heme), 20 mM Hepes pH 7.4, 50 mM NaCl, 0.5 mM EDTA; for NMR CSP and line broadening, binding surface: heme-bound LBD, 2× ID1 or ID2 peptide
Source text: To support our ITC results, we performed solution NMR structural footprinting by titrating NCoR ID1 or ID2 peptide into ^15N-labeled REV-ERBβ LBD. For this analysis, we used backbone NMR chemical shift assignments that we previously reported for apo LBD ([18]) and collected three-dimensional (3D) NMR data to obtain backbone NMR chemical shift assignments for heme-bound LBD (fig. S4). […] To qualitatively assess the strength of each interaction, we analyzed the exchange regime of NMR chemical shift changes on the NMR time scale.
Next, we used differential NMR analysis to structurally map the ID1 and ID2 peptide binding surfaces in the heme-bound LBD. In other NRs, the AF-2 coregulator interaction surface is formed by the physical interaction of helix 12 with a surface formed by helices 3 to 5 within the LBD. REV-ERBβ lacks helix 12 but contains the surface formed by helices 3 to 5 including a conserved lysine residue (K421) on helix 3 important for corepressor interaction ([19]). We quantitatively analyzed chemical shift perturbations (CSPs) and line broadening caused by peptide binding in 2D [^1H,^15N]-TROSY-HSQC NMR spectra (Fig. 1D and fig. S6). […] We also observed binding effects on helix 7, which may be attributed to a peptide-induced allosteric conformational change due to interactions between the heme propionate group and G480 on helix 7 (fig. S7).
For generation of ^15N-labeled REV-ERBβ LBD, protein was expressed in BL21(DE3) E. coli cells using M9 minimal media supplemented with ^15NH4Cl (Cambridge Isotope Laboratories) induced at an optical density at 600 nm (OD600) of 0.6 with 0.5 mM isopropyl-β-D-thiogalactopyranoside (IPTG) for 16 hours at 18°C. For generation of ^2H-,^15N-,^13C-labeled REV-ERBβ LBD (~70% deuteration) for peak assignment experiments, cultures were first grown at 37°C in 1 liter of LB media until an OD600 of 0.6 before the cells were pelleted and resuspended in 0.5 liters of M9 minimal media prepared in D2O supplemented with ^13C-D-glucose and ^15NH4Cl (Cambridge Isotope Laboratories). After 1-hour recovery at 37°C, expression was induced with 0.5 mM IPTG for 16 hour at 37°C before harvesting by centrifugation. […]
To generate heme-bound protein, 1.25 molar equivalents of heme prepared in 0.2 M NaOH as a 50 mM stock were added to ^15N-labeled REV-ERBβ LBD (200 μM) or ^2H-,^15N-,^13C-labeled REV-ERBβ LBD (1 mM) in Hepes buffer [20 mM Hepes (pH 7.4), 50 mM NaCl, and 0.5 mM EDTA]. NMR data were collected at 298 K on a Bruker 700-MHz NMR system equipped with a QCI CryoProbe, processed using NMRFx ([40]), and analyzed using NMRViewJ ([41]). […] 2D [^1H,^15N]-TROSY-HSQC data were collected for heme-bound ^15N-labeled REV-ERBβ LBD at 298 K with addition of NCoR ID1 or ID2 peptides prepared as 50 mM stock in DMSO and analyzed in NMRViewJ. […]

Ac-RTHRLITLADHICQIITQDFARN-NH2 [NCoR ID1 peptide]
interaction of bound ID peptide in crystal structure (in words) [1]: formed electrostatic interactions with the conserved charge clamp residue K421 on helix 3
NMR exchange regime on peptide titration [2]: mixture of peak movements in slow and intermediate exchange
NMR CSP and line broadening, binding surface [2]: AF-2 surface residues including K421 showed the largest CSP changes and line broadening

CC[C@H](C)[C@H](NC(=O)[C@H](CC(=O)O)NC(=O)[C@H](CCC(=O)O)NC(=O)[C@H](CC(C)C)NC(=O)CNC(=O)[C@H](CC(C)C)NC(=O)[C@H](CC(N)=O)NC(=O)[C@H](CO)NC(=O)[C@H](C)NC(=O)[C@@H]1CCCN1C(=O)[C@H](CC(=O)O)NC(C)=O)C(=O)N[C@H](C(=O)N[C@@H](CCCNC(=N)N)C(=O)N[C@@H](CCCCN)C(=O)N[C@@H](C)C(=O)N[C@@H](CC(C)C)C(=O)N[C@@H](CCSC)C(=O)NCC(=O)N[C@@H](CO)C(=O)N[C@@H](Cc1ccccc1)C(=O)N[C@@H](CC(=O)O)C(=O)N[C@@H](CC(=O)O)C(=O)N[C@@H](CCCCN)C(N)=O)[C@@H](C)CC [NCoR ID2 peptide]
interaction of bound ID peptide in crystal structure (in words) [1]: formed electrostatic interactions with the conserved charge clamp residue K421 on helix 3
NMR exchange regime on peptide titration [2]: mixture of peak movements in slow and intermediate exchange
NMR CSP and line broadening, binding surface [2]: AF-2 surface residues including K421 showed the largest CSP changes and line broadening
